Where two headings read alike, the source gives them in different places. Marks after values point to notes of the source that are not given here. Starred links: 1 amine or outer side, 2 acyl side, 3 side chain; linkers in the order of their positions; H or OH if unused. Non-standard residues stand in square brackets, D forms with d. Residues, ends and D or L forms follow the SMILES beside them. Groups on a side chain read outwards from the residue. *: point of attachment. C18 diacid = O=C(O)CCCCCCCCCCCCCCCCC(=O)*; γGlu = O=C(O)[C@H](CCC(=O)[*:2])N[*:1]; εLys = N[C@@H](CCCCN[*:1])C(=O)[*:2]; Aib = CC(C)(N)C(=O)O
Assay: Pharmacokinetic study in dogs after oral dosing of tablets with SNAC
Type: in vivo, Beagle dogs
Conditions: for half-life / Tmax: male
Outline: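 Male beagle dogs (9-17 kg), fasted, received a single oral tablet with 100-300 mg SNAC and 3-4 mg test substance, groups of 6-8.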

[1] = oral tablet, SNAC 300 mg, test substance 3 mg, Beagle dogs, arithmetic mean

| Compound | half-life (dog, in vivo, oral tablet, SNAC 300 mg, test substance 3 mg, Beagle dogs, harmonic mean, read-out: t1/2 (converted)) [days] | Tmax (dog, in vivo, oral tablet, SNAC 300 mg, test substance 3 mg, Beagle dogs, median, read-out: Tmax) [h] | AUC/Dose [1] | Cmax/Dose [1] | AUC/Dose (dog, in vivo, po) | Cmax/Dose (dog, in vivo, po) | Tmax (Beagle, dog, in vivo, po) [h] | half-life (Beagle, dog, in vivo, po) [days] |
| --- | --- | --- | --- | --- | --- | --- | --- | --- |
| CC[C@H](C)[C@H](NC(=O)[C@H](Cc1ccccc1)NC(=O)[C@H](CCC(=O)O)NC(=O)[C@H](CCCNC(=N)N)NC(=O)[C@H](C)NC(=O)[C@H](C)NC(=O)[C@H](CCC(N)=O)NC(=O)[C@H](CCCCNC(=O)[C@@H](N)CCCCNC(=O)[C@@H](N)CCCCNC(=O)CC[C@H](NC(=O)CCCCCCCCCCCCCCCCC(=O)O)C(=O)O)NC(=O)[C@H](CCC(=O)O)NC(=O)[C@H](CC(C)C)NC(=O)[C@H](CC(C)C)NC(=O)[C@@H](NC(=O)[C@H](CO)NC(=O)[C@H](Cc1ccc(O)cc1)NC(=O)[C@H](CC(=O)O)NC(=O)[C@H](CO)NC(=O)[C@@H](NC(=O)[C@H](Cc1ccccc1)NC(=O)[C@@H](NC(=O)CNC(=O)[C@H](CCC(=O)O)NC(=O)C(C)(C)NC(=O)[C@@H](N)Cc1ccc(O)cc1)[C@@H](C)O)[C@@H](C)O)[C@@H](C)CC)C(=O)N[C@@H](CCC(=O)O)C(=O)N[C@@H](Cc1c[nH]c2ccccc12)C(=O)N[C@@H](CC(C)C)C(=O)N[C@@H](CC(C)C)C(=O)N[C@@H](CCCNC(=N)N)C(=O)NCC(=O)NCC(=O)N1CCC[C@H]1C(=O)N[C@@H](CCC(=O)O)C(=O)N[C@@H](CO)C(=O)NCC(=O)N[C@@H](C)C(=O)N1CCC[C@H]1C(=O)N1CCC[C@H]1C(=O)N1CCC[C@H]1C(=O)N[C@@H](CO)C(=O)O [Compound 28] (H-Y[Aib]EGTFTSDYSILLEK([εLys-εLys-γGlu-C18 diacid])QAAREFIEWLLRGGPESGAPPPS-OH) | 2.79 | 1.3 | 18.6** kg * h/L | 0.36** kg/L |  |  |  |  |
| CC[C@H](C)[C@H](NC(=O)[C@H](Cc1ccccc1)NC(=O)[C@H](CCC(=O)O)NC(=O)[C@H](CCC(N)=O)NC(=O)[C@H](C)NC(=O)[C@H](C)NC(=O)[C@H](CCC(N)=O)NC(=O)[C@H](CCCCNC(=O)[C@@H](N)CCCCNC(=O)[C@@H](N)CCCCNC(=O)CC[C@H](NC(=O)CCCCCCCCCCCCCCCCC(=O)O)C(=O)O)NC(=O)[C@H](CCC(=O)O)NC(=O)[C@H](CC(C)C)NC(=O)[C@H](CC(C)C)NC(=O)[C@@H](NC(=O)[C@H](CO)NC(=O)[C@H](Cc1ccc(O)cc1)NC(=O)[C@H](CC(=O)O)NC(=O)[C@H](CO)NC(=O)[C@@H](NC(=O)[C@H](Cc1ccccc1)NC(=O)[C@@H](NC(=O)CNC(=O)[C@H](CCC(=O)O)NC(=O)C(C)(C)NC(=O)[C@@H](N)Cc1ccc(O)cc1)[C@@H](C)O)[C@@H](C)O)[C@@H](C)CC)C(=O)N[C@@H](CCC(=O)O)C(=O)N[C@@H](Cc1c[nH]c2ccccc12)C(=O)N[C@@H](CC(C)C)C(=O)N[C@@H](CC(C)C)C(=O)N[C@@H](C)C(=O)NCC(=O)NCC(=O)N1CCC[C@H]1C(=O)N[C@@H](CO)C(=O)N[C@@H](CO)C(=O)NCC(=O)N[C@@H](C)C(=O)N1CCC[C@H]1C(=O)N1CCC[C@H]1C(=O)N1CCC[C@H]1C(=O)N[C@@H](CO)C(=O)O [Compound 29] (H-Y[Aib]EGTFTSDYSILLEK([εLys-εLys-γGlu-C18 diacid])QAAQEFIEWLLAGGPSSGAPPPS-OH) |  |  |  |  | 16.6** kg * h/L | 0.26** kg/L | 1.2 | 2.88 |
| CC[C@H](C)[C@H](NC(=O)[C@H](Cc1ccccc1)NC(=O)[C@H](CCC(=O)O)NC(=O)[C@H](CCCNC(=N)N)NC(=O)[C@H](C)NC(=O)[C@H](C)NC(=O)[C@H](CCC(N)=O)NC(=O)[C@H](CCCCNC(=O)[C@@H](N)CCCCNC(=O)[C@@H](N)CCCCNC(=O)CC[C@H](NC(=O)CCCCCCCCCCCCCCCCC(=O)O)C(=O)O)NC(=O)[C@H](CCC(=O)O)NC(=O)[C@H](CC(C)C)NC(=O)[C@H](CC(C)C)NC(=O)[C@@H](NC(=O)[C@H](CO)NC(=O)[C@H](Cc1ccc(O)cc1)NC(=O)[C@H](CC(=O)O)NC(=O)[C@H](CO)NC(=O)[C@@H](NC(=O)[C@H](Cc1ccccc1)NC(=O)[C@@H](NC(=O)CNC(=O)[C@H](CCC(=O)O)NC(=O)C(C)(C)NC(=O)[C@@H](N)Cc1ccc(O)cc1)[C@@H](C)O)[C@@H](C)O)[C@@H](C)CC)C(=O)N[C@@H](CCC(=O)O)C(=O)N[C@@H](Cc1c[nH]c2ccccc12)C(=O)N[C@@H](CC(C)C)C(=O)N[C@@H](CC(C)C)C(=O)N[C@@H](C)C(=O)NCC(=O)NCC(=O)N1CCC[C@H]1C(=O)N[C@@H](CO)C(=O)N[C@@H](CO)C(=O)NCC(=O)N[C@@H](C)C(=O)N1CCC[C@H]1C(=O)N1CCC[C@H]1C(=O)N1CCC[C@H]1C(=O)N[C@@H](CO)C(=O)O [Compound 31] (H-Y[Aib]EGTFTSDYSILLEK([εLys-εLys-γGlu-C18 diacid])QAAREFIEWLLAGGPSSGAPPPS-OH) |  |  |  |  | 17.9** kg * h/L | 0.35** kg/L | 1.3 | 2.33 |

Reference: patent publication US20220177538A1, “CO-AGONISTS AT GLP-1 AND GIP RECEPTORS SUITABLE FOR ORAL DELIVERY” (Novo Nordisk A/S, priority 2020, published 2022)
